Laboratory results taken from patent US20110189157A1, “USE OF HUMAN HYALURONIDASES FOR AXONAL REGROWTH” (priority 2008, published 2011).

How the values were obtained:
[1] = Chondroitinase activity assay: cleavage of biotin-labelled CS in solution, intact substrate detected on protamine-coated microplate; details: 0.8-100 milliunits enzyme; biotin-CS 0.01 μg/ml; 37° C., 1 h; FIG. 3
Protocol: A solid phase, for example a microtiter plate, is coated with protamine by incubation of 100 μl/well of a 0.003% solution of protamine sulfate at 37° C. for 24 hours. Thereafter, plates were washed 3 times with A dest. and stored in the dark.
Plates were washed 3 times with buffer (PBS/0.01% Tween 20) and Avidin-POD (1 μg/ml in PBS/5% BSA) was added.
After 15 min plates were washed 5 times with PBS and 100 μl OPD-solution (0.667 mg/ml) was added.
After 15 min the reaction was stopped by addition of 100 μl of 0.5 Mol H2SO4. OD was measured at 490 nm using a microplate reader.
The enzyme reaction is carried out by mixing 50 μl of biotin-labelled CS at 0.01 μg/ml with increasing amounts of chondroitinase ABC, e.g. 0.8-100 nano-units of chondroitinase ABC. Samples were brought to a volume of 100 μl by addition of PBS.
This mixture is incubated at 37° C. for 1 h. Thereafter the enzyme was inactivated by heating at 100° C. for 10 min.
Samples (85 μl of the samples) were transferred to the CS-BP (protamine)-coated microplate and incubated for 1 hour at room temperature.
The enzyme reaction is carried out by mixing 50 μl of biotin-labelled CS at 0.01 μg/ml with increasing amounts of hyaluronidase, e.g. 0.8-100 milliunits of hyaluronidase. Samples were brought to a volume of 100 μl by addition of PBS.
This mixture is incubated at 37° C. for 1 h. […]

[2] = tested on: damaged adult nigrostriatal tract; details: rat, cited from earlier work

Row | degradation of biotin-labelled chondroitin sulfate (decrease in signal, OD 490 nm) [1] | Substance | persistence of active enzyme in the injured CNS ([2]; in vivo) | axon regeneration ([2]; single dose injected adjacent to damaged nigrostriatal tract)
1 | dose-dependent degradation | hyaluronidase | – | –
2 | – | chondroitinase ABC | at least 10 days | promoted axon regeneration
